Laboratory results published in US9777008B2, “PRMT5 inhibitors and uses thereof” (Epizyme, Inc., priority 2012, dated 2017).

Columns and labels:
[1] = system: symmetric di-methyl arginine in Z-138 cells; test: Z-138 Methylation Assay (In Cell Western for symmetric di-methyl arginine and DNA content); assay type: cell-based; settings: Homo sapiens, read-out: ICW EC50
Text: [formula] [formula] Where top and bottom are the normally allowed to float, but may be fixed at 100 or 0 respectively in a 3-parameter fit. The Hill Coefficient normally allowed to float but may also be fixed at 1 in a 3-parameter fit. Y is the % inhibition and X is the compound concentration. Z-138 Methylation Assay
Z-138 suspension cells were purchased from ATCC (American Type Culture Collection, Manassas, Va.). RPMI/Glutamax medium, penicillin-streptomycin, heat inactivated fetal bovine serum, and D-PBS were purchased from Life Technologies, Grand Island, N.Y., USA. Odyssey blocking buffer, 800CW goat anti-rabbit IgG (H+L) antibody, and Licor Odyssey infrared scanner were purchased from Licor Biosciences, Lincoln, Nebr., USA. Symmetric di-methyl arginine antibody was purchased from EMD Millipore, Billerica, Mass., USA. 16% Paraformaldehyde was purchased from Electron Microscopy Sciences, Hatfield, Pa., USA. Z-138 suspension cells were maintained in growth medium (RPMI 1640 supplemented with 10% v/v heat inactivated fetal bovine serum and 100 units/mL penicillin-streptomycin) and cultured at 37° C. under 5% CO2.
Cell Treatment, in Cell Western (ICW) for Detection of Symmetric Di-Methyl Arginine and DNA Content.
Z-138 cells were seeded in assay medium at a concentration of 50,000 cells per mL to a 384-well cell culture plate with 50 μL per well. Compound (100 nL) from 384 well source plates was added directly to 384 well cell plate. Plates were incubated at 37° C., 5% CO2 for 96 hours. […]
First, the ratio for each well was determined by:
Each plate included fourteen control wells of DMSO only treatment (minimum inhibition) as well as fourteen control wells for maximum inhibition treated with 3 μM of a reference compound (Background wells). The average of the ratio values for each control type was calculated and used to determine the percent inhibition for each test well in the plate. […] Percent inhibition was determined and IC50 curves were generated using triplicate wells per concentration of compound. […]

PRMT5/MEP50 = PRMT5/MEP50 (Homo sapiens (Human), UniProt O14744); test: PRMT5 Biochemical Assay (PRMT5/MEP50 enzyme assay on peptide substrate, 3H-SAM Flashplate)
Text: S-adenosylmethionine (SAM), S-adenosylhomocysteine (SAH), bicine, KCl, Tween20, dimethylsulfoxide (DMSO), bovine skin gelatin (BSG), and Tris(2-carboxyethyl)phosphine hydrochloride solution (TCEP) were purchased from Sigma-Aldrich at the highest level of purity possible. ^3H-SAM was purchase from American Radiolabeled Chemicals with a specific activity of 80 Ci/mmol. 384-well streptavidin Flashplates were purchased from PerkinElmer.
Peptide representative of human histone H4 residues 1-15 was synthesized with a C-terminal linker-affinity tag motif and a C-terminal amide cap by 21st Century Biochemicals. The peptide was high high-performance liquid chromatography (HPLC) purified to greater than 95% purity and confirmed by liquid chromatography mass spectrometry (LC-MS). The sequence was Ac-[…][K-Biot]-amide (SEQ ID NO.:3).
Molecular Biology: Full-length human PRMT5 (NM_006109.3) transcript variant 1 clone was amplified from a fetal brain cDNA library, incorporating flanking 5′ sequence encoding a FLAG tag ([…]) (SEQ ID NO.:4) fused directly to Ala 2 of PRMT5. Full-length human MEP50 (NM_024102) clone was amplified from a human testis cDNA library incorporating a 5′ sequence encoding a 6-histidine tag (MHHHHHH) (SEQ ID NO.:5) fused directly to Arg 2 of MEP50. The amplified genes were sublconed into pENTR/D/TEV (Life Technologies) and subsequently transferred by Gateway™ attL×attR recombination to pDEST8 baculvirus expression vector (Life Technologies).
Recombinant baculovirus and Baculovirus-Infected Insect Cells (BIIC) were generated according to Bac-to-Bac kit instructions (Life Technologies) and Wasilko, 2006, respectively. Protein over-expression was accomplished by infecting exponentially growing Spodoptera frugiperda (SF9) cell culture at 1.2×10^6 cell/ml with a 5000 fold dilution of BIIC stock. Infections were carried out at 27° C. for 72 hours, harvested by centrifugation, and stored at −80° C. for purification.
Flag-PRMT5/6His-MeP50 was eluted with 300 mM Imidazole in the same buffer. The purity of recovered protein was 87%. Reference: Wasilko, D. J. and S. E. Lee: “TIPS: titerless infected-cells preservation and scale-up” Bioprocess J., 5 (2006), pp. 29-32.
General Procedure for PRMT5/MEP50 Enzyme Assays on Peptide Substrates.
The assays were all performed in a buffer consisting of 20 mM Bicine (pH=7.6), 1 mM TCEP, 0.005% BSG, and 0.002% Tween20, prepared on the day of use. Compounds in 100% DMSO (1 ul) were spotted into a polypropylene 384-well V-bottom plates (Greiner) using a Platemate Plus outfitted with a 384-channel head (Thermo Scientific). DMSO (1 ul) was added to Columns 11, 12, 23, 24, rows A-H for the maximum signal control and 1 ul of SAH, a known product and inhibitor of PRMT5/MEP50, was added to columns 11, 12, 23, 24, rows I-P for the minimum signal control. A cocktail (40 ul) containing the PRMT5/MEP50 enzyme and the peptide was added by Multidrop Combi (Thermo-Fisher). The compounds were allowed to incubate with PRMT5/MEP50 for 30 min at 25 degrees Celsius, then a cocktail (10 ul) containing ^3H-SAM was added to initiate the reaction (final volume=51 ul). The final concentrations of the components were as follows: PRMT5/MEP50 was 4 nM, ^3H-SAM was 75 nM, peptide was 40 nM, SAH in the minimum signal control wells was 100 uM, and the DMSO concentration was 1%. The assays were stopped by the addition of non-radioactive SAM (10 ul) to a final concentration of 600 uM, which dilutes the ^3H-SAM to a level where its incorporation into the peptide substrate is no longer detectable. 50 ul of the reaction in the 384-well polypropylene plate was then transferred to a 384-well Flashplate and the biotinylated peptides were allowed to bind to the streptavidin surface for at least 1 hour before being washed three times with 0.1% Tween20 in a Biotek ELx405 plate washer. […]

Sequence of PRMT5/MEP50 (O14744 other isoform, or with tags, fused parts or gaps): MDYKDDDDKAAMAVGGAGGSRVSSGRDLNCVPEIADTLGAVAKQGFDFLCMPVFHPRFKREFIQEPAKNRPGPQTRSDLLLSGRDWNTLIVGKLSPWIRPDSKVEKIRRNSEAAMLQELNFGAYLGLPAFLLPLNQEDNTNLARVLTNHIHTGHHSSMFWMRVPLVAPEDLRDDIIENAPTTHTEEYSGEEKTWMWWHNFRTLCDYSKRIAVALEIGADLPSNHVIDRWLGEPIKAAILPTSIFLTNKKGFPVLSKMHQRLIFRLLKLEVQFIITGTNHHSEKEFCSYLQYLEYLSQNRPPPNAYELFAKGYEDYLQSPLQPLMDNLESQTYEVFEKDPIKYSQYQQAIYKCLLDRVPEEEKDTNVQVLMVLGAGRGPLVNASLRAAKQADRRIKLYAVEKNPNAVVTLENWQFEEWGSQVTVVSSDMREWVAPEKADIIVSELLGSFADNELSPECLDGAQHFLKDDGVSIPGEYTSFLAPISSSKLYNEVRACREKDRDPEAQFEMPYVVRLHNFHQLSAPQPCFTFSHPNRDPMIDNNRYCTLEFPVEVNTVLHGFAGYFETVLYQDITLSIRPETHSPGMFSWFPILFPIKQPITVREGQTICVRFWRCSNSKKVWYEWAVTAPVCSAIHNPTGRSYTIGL
Sequence of PRMT5/MEP50 (Q9BQA1 other isoform, or with tags, fused parts or gaps partner): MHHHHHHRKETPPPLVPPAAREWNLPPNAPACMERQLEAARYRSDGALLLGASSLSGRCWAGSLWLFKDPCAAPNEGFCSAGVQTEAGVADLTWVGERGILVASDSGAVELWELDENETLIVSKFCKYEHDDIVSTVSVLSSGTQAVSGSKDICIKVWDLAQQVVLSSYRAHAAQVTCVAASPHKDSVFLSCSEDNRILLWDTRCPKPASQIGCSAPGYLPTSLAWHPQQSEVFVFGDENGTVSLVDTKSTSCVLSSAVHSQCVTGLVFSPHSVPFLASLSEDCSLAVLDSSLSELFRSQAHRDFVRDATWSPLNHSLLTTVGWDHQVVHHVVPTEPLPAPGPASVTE

For `O=C(Nc1cccc(OCC(O)CN2CCc3ccccc3C2)c1)c1cccnc1` (stereo not shown) [Compound 163], the EC50 [1] was 1 to 10 µM and the IC50 (PRMT5/MEP50) was 1 to 10 µM.

With `Cc1ncc2ccc(-c3cccc(OCC(O)CN4CCc5ccccc5C4)c3)cn12` (stereo not shown) [Compound 266, 1-(3,4-dihydroisoquinolin-2(1H)-yl)-3-(3-(3-methylimidazo[1,5-a]pyridin-6-yl)phenoxy)propan-2-ol] the IC50 (PRMT5/MEP50) was under 0.1 µM.

Molecule `OC(COc1cccc(-c2ccc3ncn(C4COC4)c3c2)c1)CN1CCc2ccccc2C1` (stereo not shown) [Compound 269] has an IC50 (PRMT5/MEP50) of under 0.1 µM.

Work on `CC(=O)N(CC(O)CN1CCc2ccccc2C1)c1cccc(-c2ccc3ncn(C)c3c2)c1` (stereo not shown) [Compound 273, N-(3-(3,4-dihydroisoquinolin-2(1H)-yl)-2-hydroxypropyl)-N-(3-(1-methyl-1H-benzo[d]imidazol-6-yl)phenyl)acetamide] yielded an IC50 (PRMT5/MEP50) of under 0.1 µM.

For `Cn1cnc2ccc(-c3ccnc(NC[C@H](O)CN4CCc5ccccc5C4)c3)cc21` [Compound 275], the IC50 (PRMT5/MEP50) was under 0.1 µM.

For `Cn1cnc2ccc(-c3ccnc(NC[C@@H](O)CN4CCc5ccccc5C4)c3)cc21` [Compound 276], the IC50 (PRMT5/MEP50) was 0.101 to 1 µM.

Molecule `Cn1cnc2ccc(-c3cccc(OCC(O)CN4Cc5ccccc5C(F)(F)C4)c3)cc21` (stereo not shown) [Compound 277] has an IC50 (PRMT5/MEP50) of over 10 µM.

In the case of `CN1CCCCC1COCC(O)CN1CCc2ccccc2C1` (stereo not shown) [Compound 289], the IC50 (PRMT5/MEP50) is reported as over 40 µM.

`CN1CCC(OCC(O)CN2CCc3ccccc3C2)CC1` (stereo not shown) [Compound 293] showed an IC50 (PRMT5/MEP50) of over 40 µM.

With `CCn1ccnc1COCC(O)CN1CCc2ccccc2C1` (stereo not shown) [Compound 295] the IC50 (PRMT5/MEP50) was over 40 µM.

Molecule `OC(COC1CCCNC1)CN1CCc2ccccc2C1` (stereo not shown) [Compound 297] has an IC50 (PRMT5/MEP50) of over 40 µM.

`OC(COC1CCNCC1)CN1CCc2ccccc2C1` (stereo not shown) [Compound 298] showed an IC50 (PRMT5/MEP50) of over 40 µM.

`OC(COCC1CCCCO1)CN1CCc2ccccc2C1` (stereo not shown) [Compound 304] showed an IC50 (PRMT5/MEP50) of over 40 µM.

Molecule `OC(COC1CCNC1)CN1CCc2ccccc2C1` (stereo not shown) [Compound 306] has an IC50 (PRMT5/MEP50) of over 40 µM.

`CN1CCC(OCC(O)CN2CCc3ccccc3C2)C1` (stereo not shown) [Compound 307] was tested, and the IC50 (PRMT5/MEP50) was over 40 µM.
